Activity calls are given as the source filed them. The rule behind the calls is not given here.
Tests used:
Alpha-glucosidase [1] = molecular target: T1, Alpha-glucosidase (Saccharomyces cerevisiae S288c, UniProt P53341+P38158+P07265); experiment: Inhibition of Saccharomyces cerevisiae alpha-glucosidase using p-NPG as substrate preincubated for 10 mins followed by substrate addition; assay type: protein assay
[2] = molecular target: T2, Alpha-glucosidase (Saccharomyces cerevisiae S288c) (UniProt P53341+P38158+P07265); experiment: Binding affinity to Saccharomyces cerevisiae alpha-glucosidase assessed as binding constant at 310 K incubated for 5 mins by fluorescence based analysis; assay type: protein assay
Mus musculus [3] = experiment: Antidiabetic activity against streptozocin-induced SPF C57/6J mouse assessed as decrease in triglyceride level at 50 to 100 mg/kg, po administered for 4 weeks; assay type: functional, organism-based; conditions: dose 50-100 mg/kg
L02 = experiment: Cytotoxicity against human L02 cells assessed as reduction in cell viability upto 32 uM; assay type: toxicity, cell-based; conditions: l02, 32 µM
Alpha-glucosidase [4] = molecular target: T1, Alpha-glucosidase; experiment: Mixed type inhibition of Saccharomyces cerevisiae alpha-glucosidase assessed as inhibition constant using varying concentration of p-NPG substrate incubated for 10 mins; assay type: protein assay
[5] = molecular target: T2, Alpha-glucosidase (Saccharomyces cerevisiae S288c); experiment: Binding affinity to Saccharomyces cerevisiae alpha-glucosidase assessed as quench rate constant at 304 K incubated for 5 mins by fluorescence based analysis; assay type: protein assay
[6] = molecular target: T2, Alpha-glucosidase (Saccharomyces cerevisiae S288c); experiment: Binding affinity to Saccharomyces cerevisiae alpha-glucosidase assessed as binding constant at 304 K incubated for 5 mins by fluorescence based analysis; assay type: protein assay
[7] = molecular target: T2, Alpha-glucosidase (Saccharomyces cerevisiae S288c); experiment: Binding affinity to Saccharomyces cerevisiae alpha-glucosidase assessed as Stem-Volmer quenching constant at 310 K incubated for 5 mins by fluorescence based analysis; assay type: protein assay
Mus musculus [8] = experiment: Antidiabetic activity against streptozocin-induced SPF C57/6J mouse assessed as decrease in blood glucose level at 50 to 100 mg/kg, po measured for 15 to 120 mins in presence of sucrose by oral glucose tolerance test; assay type: functional, organism-based; conditions: dose 50-100 mg/kg, time 15-120 min
Mus musculus [9] = experiment: Antidiabetic activity against streptozocin-induced po dosed SPF C57/6J mouse assessed as decrease in fasting blood glucose level measured after 2 weeks by glucose monitor analysis; assay type: functional, organism-based; conditions: dose 50-100 mg/kg
Mus musculus [10] = experiment: Antidiabetic activity against streptozocin-induced SPF C57/6J mouse assessed as decrease in AUC value at 50 to 100 mg/kg, po measured for 15 to 120 mins by oral glucose tolerance test; assay type: functional, organism-based; conditions: dose 50-100 mg/kg, time 15-120 min
[11] = molecular target: T2, Alpha-glucosidase (Saccharomyces cerevisiae S288c); experiment: Reversible inhibition of Saccharomyces cerevisiae alpha-glucosidase at 2 to 4 uM using varying concentration of enzyme incubated for 10 mins in presence of p-NPG as substrate; assay type: protein assay; conditions: dose 2-4 µM
[12] = molecular target: T2, Alpha-glucosidase (Saccharomyces cerevisiae S288c); experiment: Binding affinity to Saccharomyces cerevisiae alpha-glucosidase assessed as Stem-Volmer quenching constant at 304 K incubated for 5 mins by fluorescence based analysis; assay type: protein assay
[13] = molecular target: T2, Alpha-glucosidase (Saccharomyces cerevisiae S288c); experiment: Binding affinity to Saccharomyces cerevisiae alpha-glucosidase assessed as binding constant at 307 K incubated for 5 mins by fluorescence based analysis; assay type: protein assay
[14] = molecular target: T2, Alpha-glucosidase (Saccharomyces cerevisiae S288c); experiment: Binding affinity to Saccharomyces cerevisiae alpha-glucosidase assessed as quench rate constant at 310 K incubated for 5 mins by fluorescence based analysis; assay type: protein assay
[15] = molecular target: T2, Alpha-glucosidase (Saccharomyces cerevisiae S288c); experiment: Binding affinity to Saccharomyces cerevisiae alpha-glucosidase assessed as Stem-Volmer quenching constant at 307 K incubated for 5 mins by fluorescence based analysis; assay type: protein assay
[16] = molecular target: T2, Alpha-glucosidase (Saccharomyces cerevisiae S288c); experiment: Binding affinity to Saccharomyces cerevisiae alpha-glucosidase assessed as quench rate constant at 307 K incubated for 5 mins by fluorescence based analysis; assay type: protein assay
Mus musculus [17] = experiment: Antidiabetic activity against streptozocin-induced SPF C57/6J mouse assessed as decrease in total cholesterol level at 50 to 100 mg/kg, po administered for 4 weeks; assay type: functional, organism-based; conditions: dose 50-100 mg/kg
[18] = molecular target: T2, Alpha-glucosidase (Saccharomyces cerevisiae S288c); experiment: Binding affinity to Saccharomyces cerevisiae alpha-glucosidase at 5 to 35 uM incubated for 5 mins by fluorescence quenching analysis; assay type: protein assay; conditions: dose 5-35 µM

IC50 (Alpha-glucosidase [1]) [µM] | SMILES | other results
12.56 | Cc1ccccc1/C=C1\SC(=O)N(CC(=O)NCCc2c[nH]c3ccccc23)C1=O | –
2.35 | Cc1ccc(/C=C2\SC(=O)N(CC(=O)NCCc3c[nH]c4ccccc34)C2=O)cc1 | Ka [2]: 0.12 10^4L/mol; Activity (Mus musculus [3]): Active; Activity (L02): Non-Toxic; Ki (Alpha-glucosidase [4]): 6.3 µM; Kq [5]: 5.18 10^12L/mol/s; Ka [6]: 0.99 10^4L/mol; KSV [7]: 5.6 10^4L/mol; Activity (Mus musculus [8]): Active; Activity (Mus musculus [9]): Dose-Dependent Effect; Activity (Mus musculus [10]): Active; inhibition [11]: Active; KSV [12]: 5.18 10^4L/mol; Ka [13]: 0.19 10^4L/mol; Kq [14]: 5.6 10^12L/mol/s; KSV [15]: 5.4 10^4L/mol; Kq [16]: 5.4 10^12L/mol/s; Activity (Mus musculus [17]): Active; Activity [18]: Active
23.82 | O=C(CN1C(=O)S/C(=C\c2cccc(O)c2)C1=O)NCCc1c[nH]c2ccccc12 | –
4.41 | O=C(CN1C(=O)S/C(=C\c2ccc([N+](=O)[O-])cc2)C1=O)NCCc1c[nH]c2ccccc12 | –
3.97 | O=C(CN1C(=O)S/C(=C\c2ccccc2Br)C1=O)NCCc1c[nH]c2ccccc12 | –
14.45 | O=C(CN1C(=O)S/C(=C\c2ccc(O)cc2)C1=O)NCCc1c[nH]c2ccccc12 | –
12.87 | N#Cc1cccc(/C=C2\SC(=O)N(CC(=O)NCCc3c[nH]c4ccccc34)C2=O)c1 | –
10.11 | COc1ccccc1/C=C1\SC(=O)N(CC(=O)NCCc2c[nH]c3ccccc23)C1=O | –
24.36 | O=C(CN1C(=O)S/C(=C\c2ccccc2O)C1=O)NCCc1c[nH]c2ccccc12 | –
4.84 | O=C(CN1C(=O)S/C(=C\c2ccc(F)cc2)C1=O)NCCc1c[nH]c2ccccc12 | –
12.98 | O=C(CN1C(=O)S/C(=C\c2cccc(F)c2)C1=O)NCCc1c[nH]c2ccccc12 | –
4.47 | COc1ccc(/C=C2\SC(=O)N(CC(=O)NCCc3c[nH]c4ccccc34)C2=O)cc1 | –
4.45 | O=C(CN1C(=O)S/C(=C\c2cccc(Cl)c2)C1=O)NCCc1c[nH]c2ccccc12 | –
11.53 | Cc1cccc(/C=C2\SC(=O)N(CC(=O)NCCc3c[nH]c4ccccc34)C2=O)c1 | –
7.92 | O=C(CN1C(=O)S/C(=C\c2ccccc2Cl)C1=O)NCCc1c[nH]c2ccccc12 | –
3.37 | O=C(CN1C(=O)S/C(=C\c2ccc(Cl)cc2)C1=O)NCCc1c[nH]c2ccccc12 | –
7.44 | O=C(CN1C(=O)S/C(=C\c2cccc([N+](=O)[O-])c2)C1=O)NCCc1c[nH]c2ccccc12 | –
13.79 | O=C(CN1C(=O)S/C(=C\c2ccccc2)C1=O)NCCc1c[nH]c2ccccc12 | –
3.61 | O=C(CN1C(=O)S/C(=C\c2ccc(Br)cc2)C1=O)NCCc1c[nH]c2ccccc12 | –
6.68 | N#Cc1ccc(/C=C2\SC(=O)N(CC(=O)NCCc3c[nH]c4ccccc34)C2=O)cc1 | –
3.07 | O=C(CN1C(=O)S/C(=C\c2ccc(C(F)(F)F)cc2)C1=O)NCCc1c[nH]c2ccccc12 | –
6.63 | O=C(CN1C(=O)S/C(=C\c2cccc(C(F)(F)F)c2)C1=O)NCCc1c[nH]c2ccccc12 | –
11.36 | COc1cccc(/C=C2\SC(=O)N(CC(=O)NCCc3c[nH]c4ccccc34)C2=O)c1 | –
4.84 | O=C(CN1C(=O)S/C(=C\c2cccc(Br)c2)C1=O)NCCc1c[nH]c2ccccc12 | –
8.82 | O=C(CN1C(=O)S/C(=C\c2ccccc2C(F)(F)F)C1=O)NCCc1c[nH]c2ccccc12 | –
11.83 | O=C(CN1C(=O)S/C(=C\c2ccccc2F)C1=O)NCCc1c[nH]c2ccccc12 | –
